Experimental data from ChEMBL document CHEMBL1131152, “In vitro and in vivo activities of oligodeoxynucleotide-based thrombin inhibitors containing neutral formacetal linkages” (J Med Chem, 1998).

Target: Prothrombin (Homo sapiens) (UniProt P00734)
Test: Relative prothrombin time was determined as the activity of the test ODN (oligodeoxynucleotide) relative to that of GS-522

| SMILES | Relative PT |
| --- | --- |
| Cc1cn([C@H]2C[C@H](OCOC[C@H]3O[C@@H](n4cnc5c(=O)[nH]c(=N)[nH]c54)C[C@@H]3OP(=O)(O)OC[C@H]3O[C@@H](n4cnc5c(=O)nc(N)[nH]c54)C[C@@H]3O)[C@@H](COP(=O)(O)O[C@H]3C[C@H](n4cc(C)c(=O)[nH]c4=O)O[C@@H]3COP(=O)(O)O[C@H]3C[C@H](n4cnc5c(=O)[nH]c(=N)[nH]c54)O[C@@H]3COP(=O)(O)O[C@H]3C[C@H](n4cnc5c(=O)nc(N)[nH]c54)O[C@@H]3COCO[C@H]3C[C@H](n4cc(C)c(=O)[nH]c4=O)O[C@@H]3COP(=O)(O)O[C@H]3C[C@H](n4cnc5c(=O)[nH]c(=N)[nH]c54)O[C@@H]3COP(=O)(O)O[C@H]3C[C@H](n4cc(C)c(=O)[nH]c4=O)O[C@@H]3COP(=O)(O)O[C@H]3C[C@H](n4cnc5c(=O)[nH]c(=N)[nH]c54)O[C@@H]3COP(=O)(O)O[C@H]3C[C@H](n4cnc5c(=O)nc(N)[nH]c54)O[C@@H]3COP(=O)(O)O[C@H]3C[C@H](n4cc(C)c(=O)[nH]c4=O)O[C@@H]3COP(=O)(O)O[C@H]3C[C@H](n4cc(C)c(=O)[nH]c4=O)O[C@@H]3COP(=O)(O)O[C@H]3C[C@H](n4cnc5c(=O)nc(N)[nH]c54)O[C@@H]3COP(=O)(O)O[C@H]3C[C@H](n4cnc5c(=O)[nH]c(=N)[nH]c54)O[C@@H]3COP(=O)(O)O)O2)c(=O)[nH]c1=O | 0.4 |
| Cc1cn([C@H]2C[C@H](OP(=O)(O)OC[C@H]3O[C@@H](n4cnc5c(=O)nc(N)[nH]c54)C[C@@H]3OP(=O)(O)OC[C@H]3O[C@@H](n4cnc5c(=O)[nH]c(=N)[nH]c54)C[C@@H]3OP(=O)(O)OC[C@H]3O[C@@H](n4cc(C)c(=O)[nH]c4=O)C[C@@H]3OP(=O)(O)OC[C@H]3O[C@@H](n4cnc5c(=O)nc(N)[nH]c54)C[C@@H]3OP(=O)(O)OC[C@H]3O[C@@H](n4cc(C)c(=O)[nH]c4=O)C[C@@H]3OP(=O)(O)OC[C@H]3O[C@@H](n4cnc5c(=O)nc(N)[nH]c54)C[C@@H]3OCOC[C@H]3O[C@@H](n4cnc5c(=O)[nH]c(=N)[nH]c54)C[C@@H]3OP(=O)(O)OC[C@H]3O[C@@H](n4cc(C)c(=O)[nH]c4=O)C[C@@H]3OP(=O)(O)OC[C@H]3O[C@@H](n4cc(C)c(=O)[nH]c4=O)C[C@@H]3OP(=O)(O)OC[C@H]3O[C@@H](n4cnc5c(=O)[nH]c(=N)[nH]c54)C[C@@H]3OP(=O)(O)OC[C@H]3O[C@@H](n4cnc5c(=O)nc(N)[nH]c54)C[C@@H]3O)[C@@H](COP(=O)(O)O[C@H]3C[C@H](n4cc(C)c(=O)[nH]c4=O)O[C@@H]3COP(=O)(O)O[C@H]3C[C@H](n4cnc5c(=O)[nH]c(=N)[nH]c54)O[C@@H]3COP(=O)(O)O[C@H]3C[C@H](n4cnc5c(=O)nc(N)[nH]c54)O[C@@H]3COP(=O)(O)O)O2)c(=O)[nH]c1=O | 0.8 |
| Cc1cn([C@H]2C[C@H](OP(=O)(O)OC[C@H]3O[C@@H](n4cc(C)c(=O)[nH]c4=O)C[C@@H]3OP(=O)(O)OC[C@H]3O[C@@H](n4cnc5c(=O)nc(N)[nH]c54)C[C@@H]3OP(=O)(O)OC[C@H]3O[C@@H](n4cnc5c(=O)[nH]c(=N)[nH]c54)C[C@@H]3OP(=O)(O)OC[C@H]3O[C@@H](n4cc(C)c(=O)[nH]c4=O)C[C@@H]3OP(=O)(O)OC[C@H]3O[C@@H](n4cnc5c(=O)[nH]c(=N)[nH]c54)C[C@@H]3OP(=O)(O)OC[C@H]3O[C@@H](n4cc(C)c(=O)[nH]c4=O)C[C@@H]3OP(=O)(O)OC[C@H]3O[C@@H](n4cnc5c(=O)nc(N)[nH]c54)C[C@@H]3OP(=O)(O)OC[C@H]3O[C@@H](n4cnc5c(=O)[nH]c(=N)[nH]c54)C[C@@H]3OP(=O)(O)OC[C@H]3O[C@@H](n4cc(C)c(=O)[nH]c4=O)C[C@@H]3OP(=O)(O)OC[C@H]3O[C@@H](n4cc(C)c(=O)[nH]c4=O)C[C@@H]3OP(=O)(O)OC[C@H]3O[C@@H](n4cnc5c(=O)[nH]c(=N)[nH]c54)C[C@@H]3OP(=O)(O)OC[C@H]3O[C@@H](n4cnc5c(=O)nc(N)[nH]c54)C[C@@H]3O)[C@@H](COCO[C@H]3C[C@H](n4cnc5c(=O)nc(N)[nH]c54)O[C@@H]3COP(=O)(O)O[C@H]3C[C@H](n4cnc5c(=O)nc(N)[nH]c54)O[C@@H]3COP(=O)(O)O)O2)c(=O)[nH]c1=O | 0.9 |
| Cc1cn([C@H]2C[C@H](OCOC[C@H]3O[C@@H](n4cc(C)c(=O)[nH]c4=O)C[C@@H]3OP(=O)(O)OC[C@H]3O[C@@H](n4cnc5c(=O)nc(N)[nH]c54)C[C@@H]3OP(=O)(O)OC[C@H]3O[C@@H](n4cnc5c(=O)[nH]c(=N)[nH]c54)C[C@@H]3OP(=O)(O)OC[C@H]3O[C@@H](n4cc(C)c(=O)[nH]c4=O)C[C@@H]3OP(=O)(O)OC[C@H]3O[C@@H](n4cnc5c(=O)nc(N)[nH]c54)C[C@@H]3OP(=O)(O)OC[C@H]3O[C@@H](n4cc(C)c(=O)[nH]c4=O)C[C@@H]3OP(=O)(O)OC[C@H]3O[C@@H](n4cnc5c(=O)nc(N)[nH]c54)C[C@@H]3OP(=O)(O)OC[C@H]3O[C@@H](n4cnc5c(=O)[nH]c(=N)[nH]c54)C[C@@H]3OP(=O)(O)OC[C@H]3O[C@@H](n4cc(C)c(=O)[nH]c4=O)C[C@@H]3OP(=O)(O)OC[C@H]3O[C@@H](n4cc(C)c(=O)[nH]c4=O)C[C@@H]3OP(=O)(O)OC[C@H]3O[C@@H](n4cnc5c(=O)[nH]c(=N)[nH]c54)C[C@@H]3OP(=O)(O)OC[C@H]3O[C@@H](n4cnc5c(=O)nc(N)[nH]c54)C[C@@H]3O)[C@@H](COP(=O)(O)O[C@H]3C[C@H](n4cnc5c(=O)[nH]c(=N)[nH]c54)O[C@@H]3COP(=O)(O)O[C@H]3C[C@H](n4cnc5c(=O)nc(N)[nH]c54)O[C@@H]3COP(=O)(O)O)O2)c(=O)[nH]c1=O | 1.1 |
| Cc1cn([C@H]2C[C@H](OCOC[C@H]3O[C@@H](n4cnc5c(=O)nc(N)[nH]c54)C[C@@H]3OP(=O)(O)OC[C@H]3O[C@@H](n4cnc5c(=O)[nH]c(=N)[nH]c54)C[C@@H]3OP(=O)(O)OC[C@H]3O[C@@H](n4cc(C)c(=O)[nH]c4=O)C[C@@H]3OP(=O)(O)OC[C@H]3O[C@@H](n4cnc5c(=O)[nH]c(=N)[nH]c54)C[C@@H]3OP(=O)(O)OC[C@H]3O[C@@H](n4cc(C)c(=O)[nH]c4=O)C[C@@H]3OP(=O)(O)OC[C@H]3O[C@@H](n4cnc5c(=O)nc(N)[nH]c54)C[C@@H]3OP(=O)(O)OC[C@H]3O[C@@H](n4cnc5c(=O)[nH]c(=N)[nH]c54)C[C@@H]3OP(=O)(O)OC[C@H]3O[C@@H](n4cc(C)c(=O)[nH]c4=O)C[C@@H]3OP(=O)(O)OC[C@H]3O[C@@H](n4cc(C)c(=O)[nH]c4=O)C[C@@H]3OP(=O)(O)OC[C@H]3O[C@@H](n4cnc5c(=O)[nH]c(=N)[nH]c54)C[C@@H]3OP(=O)(O)OC[C@H]3O[C@@H](n4cnc5c(=O)nc(N)[nH]c54)C[C@@H]3O)[C@@H](COP(=O)(O)O[C@H]3C[C@H](n4cc(C)c(=O)[nH]c4=O)O[C@@H]3COP(=O)(O)O[C@H]3C[C@H](n4cnc5c(=O)nc(N)[nH]c54)O[C@@H]3COP(=O)(O)O[C@H]3C[C@H](n4cnc5c(=O)nc(N)[nH]c54)O[C@@H]3COP(=O)(O)O)O2)c(=O)[nH]c1=O | 0.7 |
| Cc1cn([C@H]2C[C@H](OCOC[C@H]3O[C@@H](n4cnc5c(=O)nc(N)[nH]c54)C[C@@H]3OP(=O)(O)OC[C@H]3O[C@@H](n4cnc5c(=O)[nH]c(=N)[nH]c54)C[C@@H]3OP(=O)(O)OC[C@H]3O[C@@H](n4cc(C)c(=O)[nH]c4=O)C[C@@H]3OP(=O)(O)OC[C@H]3O[C@@H](n4cnc5c(=O)[nH]c(=N)[nH]c54)C[C@@H]3OP(=O)(O)OC[C@H]3O[C@@H](n4cc(C)c(=O)[nH]c4=O)C[C@@H]3OCOC[C@H]3O[C@@H](n4cnc5c(=O)nc(N)[nH]c54)C[C@@H]3OP(=O)(O)OC[C@H]3O[C@@H](n4cnc5c(=O)[nH]c(=N)[nH]c54)C[C@@H]3OP(=O)(O)OC[C@H]3O[C@@H](n4cc(C)c(=O)[nH]c4=O)C[C@@H]3OP(=O)(O)OC[C@H]3O[C@@H](n4cc(C)c(=O)[nH]c4=O)C[C@@H]3OP(=O)(O)OC[C@H]3O[C@@H](n4cnc5c(=O)[nH]c(=N)[nH]c54)C[C@@H]3OP(=O)(O)OC[C@H]3O[C@@H](n4cnc5c(=O)nc(N)[nH]c54)C[C@@H]3O)[C@@H](COP(=O)(O)O[C@H]3C[C@H](n4cc(C)c(=O)[nH]c4=O)O[C@@H]3COP(=O)(O)O[C@H]3C[C@H](n4cnc5c(=O)[nH]c(=N)[nH]c54)O[C@@H]3COP(=O)(O)O[C@H]3C[C@H](n4cnc5c(=O)[nH]c(=N)[nH]c54)O[C@@H]3COP(=O)(O)O)O2)c(=O)[nH]c1=O | 0.7 |
| Cc1cn([C@H]2C[C@H](OCOC[C@H]3O[C@@H](n4cc(C)c(=O)[nH]c4=O)C[C@@H]3OP(=O)(O)OC[C@H]3O[C@@H](n4cnc5c(=O)nc(N)[nH]c54)C[C@@H]3OP(=O)(O)OC[C@H]3O[C@@H](n4cnc5c(=O)[nH]c(=N)[nH]c54)C[C@@H]3OP(=O)(O)OC[C@H]3O[C@@H](n4cc(C)c(=O)[nH]c4=O)C[C@@H]3OCOC[C@H]3O[C@@H](n4cnc5c(=O)[nH]c(=N)[nH]c54)C[C@@H]3OP(=O)(O)OC[C@H]3O[C@@H](n4cc(C)c(=O)[nH]c4=O)C[C@@H]3OP(=O)(O)OC[C@H]3O[C@@H](n4cnc5c(=O)nc(N)[nH]c54)C[C@@H]3OP(=O)(O)OC[C@H]3O[C@@H](n4cnc5c(=O)[nH]c(=N)[nH]c54)C[C@@H]3OP(=O)(O)OC[C@H]3O[C@@H](n4cc(C)c(=O)[nH]c4=O)C[C@@H]3OCOC[C@H]3O[C@@H](n4cc(C)c(=O)[nH]c4=O)C[C@@H]3OP(=O)(O)OC[C@H]3O[C@@H](n4cnc5c(=O)[nH]c(=N)[nH]c54)C[C@@H]3OP(=O)(O)OC[C@H]3O[C@@H](n4cnc5c(=O)nc(N)[nH]c54)C[C@@H]3O)[C@@H](COP(=O)(O)O[C@H]3C[C@H](n4cnc5c(=O)nc(N)[nH]c54)O[C@@H]3COP(=O)(O)O[C@H]3C[C@H](n4cnc5c(=O)[nH]c(=N)[nH]c54)O[C@@H]3COP(=O)(O)O)O2)c(=O)[nH]c1=O | 0.9 |
